Measured values taken from ChEMBL document CHEMBL1150104, “Isolation and structure identification of an active DNA strand-scission agent, (+)-3,4-di-hydroxy-8,9-methylenedioxypterocarpan” (1995).
Converted amounts (≈) assume the structure as drawn. The source made the active and inactive calls. No cut-off for these calls is given here.

Assays:
Nucleic Acid [1] = assay: Induction of DNA strand scission activity in Escherichia coli pBR322 at 25 ug/mL by electrophoresis; assay type: nucleic-acid assay
KB = assay: Cytotoxicity against human KB cells; assay type: functional; conditions: read-out: ED50 (the source's name)
Nucleic Acid [2] = assay: Induction of DNA strand scission activity in Escherichia coli pBR322 at 0.1 ug/mL by electrophoresis; assay type: nucleic-acid assay

Row | Activity (Nucleic Acid [1]) | Activity (Nucleic Acid [2]) | Compound | EC50 (KB) [µg/mL]
1 | inactive | – | Oc1ccc2c(c1)OC[C@@H]1c3cc4c(cc3O[C@H]21)OCO4 [(+)-MAACKIAIN] | 5.6 (≈ 19.7 µM)
2 | Active | – | Oc1ccc2c(c1O)OC[C@@H]1c3cc4c(cc3O[C@H]21)OCO4 | 0.9 (≈ 3 µM)
3 | inactive | – | COc1ccc2c(c1O)OC[C@@H]1c3cc4c(cc3O[C@H]21)OCO4 | 4 (≈ 12.7 µM)
4 | – | Active | BLEOMYCIN SULFATE | –
